Reference: paper PMC6166404 (Journal of medicinal chemistry, 2018)

Experiments:
MtbIMPDH2ΔCBS = MtbIMPDH2ΔCBS (Mycobacterium tuberculosis, UniProt P9WKI7, R252G); format: biochemical; details: for Ki: read-out: Ki,app MtbIMPDH2
[1] = test system: Mtb strain SRMV2.6 (MtbIMPDH2/Y487C); format: cell-based, Mycobacterium tuberculosis
MtbIMPDH2/Y487C = MtbIMPDH2/Y487C (Mycobacterium tuberculosis, UniProt P9WKI7, Y487C); format: biochemical

COc1ccc(Cc2nc3cc(NC(=O)[C@H](C)Oc4cccc(Cl)c4Cl)ccc3o2)cc1 [Compound 15, (S)-2-(2,3-dichlorophenoxy)-N-(2-(4-methoxybenzyl)benzo[d]oxazol-5-yl)prop-anamide]
factor of reduced activity compared to 8d (MtbIMPDH2ΔCBS): 6

C[C@H](Oc1cccc(Cl)c1Cl)C(=O)Nc1ccc2oc(-c3cccc(OCC(=O)O)c3)nc2c1 [Compound 19b, (S)-2-(3-(5-(2-(2,3-Dichlorophenoxy)propanamido)benzo[d]oxazol-2-yl)phenoxy)acetic acid]
fold loss in activity on translocating the alkoxy from para to meta position (MtbIMPDH2ΔCBS): 4 fold

C[C@H](Oc1cccc(Cl)c1Cl)C(=O)Nc1ccc2oc(-c3ccc(OC(F)(F)F)cc3)nc2c1 [Compound 8e, (S)-2-(2,3-Dichlorophenoxy)-N-(2-(4-(trifluoromethoxy)phenyl)benzo[d]oxazol-5-yl)propanamide]
fold increase in MtbIMPDH2ΔCBS inhibitory activity compared to 2 (MtbIMPDH2ΔCBS): 7 fold

COc1ccc(-c2nc3cc(NC(=O)[C@H](C)Oc4cccc(Cl)c4Cl)ccc3o2)cn1 [Compound 8c, (S)-2-(2,3-dichlorophenoxy)-N-(2-(6-methoxypyridin-3-yl)benzo[d]oxazol-5-yl)propanamide]
fold increase in MtbIMPDH2ΔCBS inhibitory activity compared to 2 (MtbIMPDH2ΔCBS): 5 fold

C[C@H](Oc1cccc(Cl)c1Cl)C(=O)Nc1ccc2oc(-c3ccc(O)cc3)nc2c1 [Compound 8i, (S)-2-(2,3-Dichlorophenoxy)-N-(2-(4-hydroxyphenyl)benzo[d]oxazol-5-yl)propanamide]
fold increase in MtbIMPDH2ΔCBS inhibitory activity compared to 2 (MtbIMPDH2ΔCBS): 2 fold

CCOC(=O)COc1cccc(-c2nc3cc(NC(=O)[C@H](C)Oc4cccc(Cl)c4Cl)ccc3o2)c1 [Compound 18b, Ethyl(S)-2-(3-(5-(2-(2,3-dichlorophenoxy)propanamido)benzo[d]oxazol-2-yl)phenoxy)acetate]
fold loss in activity on translocating the alkoxy from para to meta position (MtbIMPDH2ΔCBS): 4 fold

COc1ccc(-c2nc3cc(NC(=O)[C@H](C)Oc4cccc(Cl)c4Cl)ccc3o2)cc1 [Compound 8d, (S)-2-(2,3-Dichlorophenoxy)-N-(2-(4-methoxyphenyl)benzo[d]oxazol-5-yl)propanamide]
fold increase in MtbIMPDH2ΔCBS inhibitory activity compared to 2 (MtbIMPDH2ΔCBS): 7 fold

(S)-2-(2,3-Dichlorophenoxy)-N-(2-(2-oxo-1,2-dihydropyridin-4-yl)benzo[d]oxazol-5-yl)propanamide [Compound 30]
fold reduction of MtbIMPDH2ΔCBS inhibitory activity compared to 2 (MtbIMPDH2ΔCBS): 3 fold | Ki (MtbIMPDH2ΔCBS): 220 ± 6 nM

COc1ccc(OC(C)C(=O)Nc2ccc3oc(-c4ccncc4)nc3c2)cc1 (stereo not drawn) [Compound 1, reference compound]
MIC SRMV2.6 [1]: >100 µM | susceptibility of strain SRMV2.6 [1]: resistant

CCOC(=O)COc1ccc(-c2nc3cc(NC(=O)[C@H](C)Oc4cccc(Cl)c4Cl)ccc3o2)cc1 [Compound 18a, Ethyl (S)-2-(4-(5-(2-(2,3-dichlorophenoxy)propanamido)benzo[d]oxazol-2-yl)phenoxy)acetate]
susceptibility of strain SRMV2.6 [1]: remained sensitive

C[C@H](Oc1cccc(Cl)c1Cl)C(=O)Nc1ccc2oc(-c3ccc(/C(N)=N\O)cc3)nc2c1 [Compound 25, (S,Z)-2-(2,3-Dichlorophenoxy)-N-(2-(4-(N’-hydroxycarbamimidoyl)phenyl)benzo[d]oxazol-5-yl)propanamide]
fold increase in activity on replacing the carboxylate (MtbIMPDH2ΔCBS): 2 to 7 fold

(S)-2-(2,3-Dichlorophenoxy)-N-(2-(2-methoxypyridin-4-yl)benzo[d]oxazol-5-yl)propanamide [Compound 8b]
fold increase in MtbIMPDH2ΔCBS inhibitory activity compared to 2 (MtbIMPDH2ΔCBS): 5 fold | Ki (MtbIMPDH2ΔCBS): 12 ± 0.1 nM

C[C@H](Oc1cccc(Cl)c1Cl)C(=O)Nc1ccc2oc(-c3ccc(-c4n[nH]c(=O)o4)cc3)nc2c1 [Compound 24, (S)-2-(2,3-Dichlorophenoxy)-N-(2-(4-(5-oxo-4,5-dihydro-1,3,4-oxadiazol-2-yl)phenyl)benzo[d]oxazol-5-yl)propanamide]
fold increase in activity on replacing the carboxylate (MtbIMPDH2ΔCBS): 2 to 7 fold

C[C@H](Nc1cccc(F)c1F)C(=O)Nc1ccc2oc(-c3ccc(C#N)cc3)nc2c1 [Compound 17b, (S)-N-(2-(4-Cyanophenyl)benzo[d]oxazol-5-yl)-2-((2,3-difluorophenyl)amino)propanamide]
Ratio Ki,app (Y487C) /Ki,app (WT) (MtbIMPDH2/Y487C): 60 | MIC SRMV2.6 [1]: >100 µM | susceptibility of strain SRMV2.6 [1]: resistant

C[C@H](Oc1cccc(Cl)c1Cl)C(=O)Nc1ccc2oc(-c3ccc(-c4noc(=O)[nH]4)cc3)nc2c1 [Compound 26, (S)-2-(2,3-Dichlorophenoxy)-N-(2-(4-(5-oxo-4,5-dihydro-1,2,4-oxadiazol-3-yl)phenyl)benzo-[d]oxazol-5-yl)propanamide]
fold increase in activity on replacing the carboxylate (MtbIMPDH2ΔCBS): 2 to 7 fold

C[C@H](Oc1cccc(Cl)c1Cl)C(=O)Nc1ccc2oc(-c3ccc(C(N)=O)cc3)nc2c1 [Compound 28, (S)-4-(5-(2-(2,3-Dichlorophenoxy)propanamido)benzo[d]oxazol-2-yl)benzamide]
fold increase in activity on replacing the carboxylate (MtbIMPDH2ΔCBS): 2 to 7 fold

C[C@H](Oc1cccc(Cl)c1Cl)C(=O)Nc1ccc2oc(-c3ccc(C#N)cc3)nc2c1 [Compound 8f, (S)-N-(2-(4-Cyanophenyl)benzo[d]oxazol-5-yl)-2-(2,3-dichlorophenoxy)propanamide]
fold increase in MtbIMPDH2ΔCBS inhibitory activity compared to 2 (MtbIMPDH2ΔCBS): 7 fold

C[C@H](Oc1cccc(Cl)c1Cl)C(=O)Nc1ccc2oc(-c3ccc(C(=O)O)cc3)nc2c1 [Compound 22, (S)-4-(5-(2-(2,3-Dichlorophenoxy)propanamido)benzo[d]oxazol-2-yl)benzoic acid]
susceptibility of strain SRMV2.6 [1]: remained sensitive

C[C@H](Oc1cccc(Cl)c1Cl)C(=O)Nc1ccc2oc(-c3ccc(C(=O)NN)cc3)nc2c1 [Compound 23, (S)-2-(2,3-Dichlorophenoxy)-N-(2-(4-(hydrazinecarbonyl)phenyl)benzo[d]oxazol-5-yl)propanamide]
fold increase in activity on replacing the carboxylate (MtbIMPDH2ΔCBS): 2 to 7 fold
